“Also recorded” adds a separate entry of the source.
Tests used:
CT26 cells [1] = assay: Subcutaneous CT26 tumour model after AH1 immunization; assay type: in vivo, BALB/c mice; conditions: 50 μg AH1 day 0; 5×10^5 CT26 s.c. day 10; day 10-30 PS or 50 μg p144 every 48 hours i.p.
Description: Next, the effect of p144 was studied on a tumour progression model which was less aggressive than the intravenous administration of CT26. In this new model, mice were immunized with 50 μg of AH1 on day 0 and ten days later they were administered 5×10^5 CT26 cells by subcutaneous route. Furthermore, with the aim of testing the effect of blocking TGF-β1 on protection against CT26 tumour cells, another two groups of mice (groups 2 and 3) were treated on alternate days by intraperitoneal route between days 10-30 with 50 μg of p144.

CT26 cells [2] = assay: Tumour growth of subcutaneous CT26 in AH1-immunized mice treated with peptides; assay type: in vivo, balb-c mice
Description: GROUPS: 4 groups of 7 female balb-c mice, of 6 weeks old/group.
AH1+FIA s.c.+p144 (50 μg i.p./dose/mouse) AH1+FIA s.c.+p17(1-11) (50 μg i.p./dose/mouse) DESIGN: AH1+FIA: […]; Peptides: from day −6 on alternate days until day 10: Tumour model volume: Each 3 days from day 10 to day 41. Challenge on day 0 with CT26 (500000 cells/mouse s.c. in the flank).
REDUCTION IN THE MEAN TUMOUR VOLUME BY GROUPS TREATED WITH PEPTIDES: The effect of peptides p144 and p17(1-11)Am was studied in a tumour progression model. In this model, mice were immunized with 50 μg of AH1 10 days before the administration of 5×10^5 CT26 cells. In order to verify the effect of blocking the TGF-β1 on the protection against CT tumour cells, another two groups of mice were treated on alternate days by intraperitoneal route between days 6 and 10 (50 μg/mouse/48 h) with peptides p144 and p17(1-11)Am. […] This protection reached 100% of the animals in the case of p144 (FIG. 16).

In the case of “p144: peptide inhibiting TGF-β1 whose amino acid sequence corresponds to SEQ ID NO: 1 (TSLDASIIWAMMQN; Synthetic Construct from human TGB-Beta1 type III receptor.Domain730-743)”, the “Animals protected on day 50” value (CT26 cells [1]) is reported as 4/10, the tumour growth (CT26 cells [2]; 50 μg/mouse/48 h i.p. between days 6 and 10, s.c. CT26 on day 0, AH1 immunization 10 days before) is reported as “protection against tumour growth; also recorded: delay tumour growth” and the “protection against tumour growth, share of animals” value (CT26 cells [2]; measured on day 42 after subcutaneous administration of tumour cells) is reported as 100%.
